Reference: patent US10227351B2, “Salt and polymorphic forms of (3R,4S)-L-((4-amino-5H-pyrrolo[3,2,-D]pyrimidin-7-yl)methyl)-4(methylthiomethyl)pyrodin-3-ol(MTDIA)” (VICTORIA LINK LIMITED, priority 2012, dated 2019)

Assay: Stated properties of the phosphate salt form (no method described)
Type: physicochemical
Details: comparator not stated in that sentence, no data given

- solubility: improved
- stability: improved
SMILES: CSC[C@H]1CN(Cc2c[nH]c3c(N)ncnc23)C[C@@H]1O [(3R,4S)-1-((4-amino-5H-pyrrolo[3,2-d]pyrimidin-7-yl)methyl)-4-(methylthiomethyl)pyrrolidin-3-ol phosphate]
